{"source": "patent US8198317B2", "about": "“Methylenedioxy phenolic compounds and their use to treat disease” (The Ohio State University Research Foundation, priority 2008, dated 2012)", "key": {"[1]": {"tested_on": "Human Umbilical Vein Endothelial Cells (HUVECs)", "experiment": "MTT cell toxicity assay", "format": "cell-based", "conditions": "HUVEC; for cells displaying toxicity: 24 hours", "experimental": "Cell Culture: All experiments were performed with cultured Human Umbilical Vein Endothelial Cells (HUVECs—Gibco, Invitrogen) and grown to confluence at 37° C. in a 5% CO2 humidified incubator, on tissue culture flasks previously coated with 1% gelatin in supplemented culture medium (M199 with 10% heat inactivated fetal calf serum, 100 U/ml penicillin, 100 μg/ml streptomycin, 2 mM glutamine, 10 mM HEPES, pH 7.4, heparin 12 I.U./ml, 1% retinal derived growth factor, Sigma). Following trypsin treatment, the cells were detached from the flasks and final mono-layers were prepared by seeding HUVECs on gelatin-precoated culture plates and then incubated for 24-48 h to ensure confluence. Cells up to the fourth passage were used for all experiments. Recombinant human TNF-α was purchased from R&D Systems (Minneapolis, Minn.).\nCell Toxicity Assays: Cellular toxicity was assessed by MTT [3-(4,5-dimethylthiazol-2-yl)-2,5-diphenyltetrazolium bromide] assay, a commercially available assay for assessment of cellular viability. INV-75 was added to HUVECs for 24 hours, and toxicity assays were performed at the end of this period. The MTT assay relies on the cellular reduction of positively charged tetrazolium salts to their intensely colored formazan product by mitochondrial dehydrogenases. Formazan production is decreased in the presence of impaired mitochondrial redox function and enhanced free radical production and may, therefore, be used as an index of cell viability responses to experimental interventions.\nIn short, after removing microtiter plates from the incubator, fresh medium containing a fixed volume of reconstituted MTT [3-(4,5-dimethylthiazol-2-yl)-2,5-diphenyltetrazlium bromide; final concentration: 0.5 mg/ml] was added to the wells; the plates were kept at 37° C. in a 5% CO2 environment for 2 h, and then the MTT solubilization solution provided by the manufacturer was added. The formazan product formed by the conversion of positively charged tetrazolium salts to the reduced state has low aqueous solubility and is present as purple crystals. Dissolving the formazan with a solubilization buffer (provided in kit) permits the convenient quantification of its formation. Optical density at OD 570 nm is then measured for each well on an absorbance plate reader. The within- and between-assay variability was 3 and 5%, respectively. Various concentrations of INV-75 was tested in cell based assays using the MTT assay, as described above. The concentrations tested ranged from 1 mM to 10 nM and the cells were exposed for over 24 hours in duration (FIG. 2)."}, "[2]": {"tested_on": "Watanabe Heritable Hyperlipidemic Rabbits (WHHL)", "experiment": "Lucigenin chemiluminescence for NADPH derived superoxide in WHHL aortic lysates", "format": "in vivo, rabbit", "conditions": "vs control", "experimental": "Oxidative stress has been implicated in atherosclerosis. Superoxide (O2^•−) derived from NADPH could potentially trigger a free radical chain reaction which could potentially catalyze atherosclerotic plaque formation. Rabbit aorta was homogenized in PBS, and the protein concentration was adjusted to 5 μg/μl. 20 ul/well of cell lysates were plated on a 96-well microplate in Kreps-Hepes Buffer (pH=7.4; initially gassed with 95% O2, and 5% CO2). The baseline O2^•− production was measured with 5 μM Lucigenin. NADPH induced O2^•− production was measured by adding NADPH (100 μM). Measurements were performed with Berthold Luminometer LB 960. Luminometer settings were 0.1 s measurement and 30s kinetics."}, "[3]": {"tested_on": "thoracic aorta of New Zealand White rabbits", "experiment": "Myograph experiments on thoracic aortic rings of NZW rabbits", "format": "in vivo, rabbit", "experimental": "Animal Model: 15 male New Zealand White rabbits (Charles River, Mass.) were fed with high fat diet (HFD) (Harlan Teklad rabbit diet with 0.5% cholesterol, TD 87251). After 4 weeks of high fat diet, rabbits were randomized into three different treatment groups, normal control (n=5), lipoic acid (100 mg/kg/day) (n=5), INV 70-65 (100 mg/kg/day) (n=5). These drugs were administered to the animals via their chow by mixing the drugs with the high fat diet. A fixed amount of chow and drugs admixed in the chow were fed to all animals every day after carefully calculating food intake in each rabbit. Drugs were dissolved in 100% ethanol and sprayed onto the diet and kept under vacuum to let ethanol evaporate overnight. Two (2) weeks after drug or control admixed HFD, all rabbits underwent aortic balloon denudation surgeries followed by 12 weeks of continued administration of drug or controls admixed with HFD. FIG. 29 provides an outline of the experimental design.\nRabbits were euthanized by injection of lethal doses of pentobarbital. The thoracic aortas were collected for the myograph studies. Two (2) mm thoracic aortic rings were suspended in individual organ chambers filled with physiological salt solution buffer (sodium chloride, 130 mEq/L; potassium chloride, 4.7 mEq/L; calcium dichloride, 1.6 mEq/L; magnesium sulfate, 1.17 mEq/L; potassium diphosphate, 1.18 mEq/L; sodium bicarbonate, 14.9 mEq/L; EDTA, 0.026 mEq/L; and glucose, 99.1 mg/dL [5.5 mmol/L]; pH, 7.4), aerated continuously with 5% carbon dioxide in oxygen at 37° C. Vessels were allowed to equilibrate for at least 1 hour at a resting tension of 30 mN before being subjected to graded doses of agonists. The vasoconstrictor agonist phenylephrine (PE) was used and responses were expressed as a percentage of the peak response to 120 mEq/L of potassium chloride. The vessels subjected to PE were washed thoroughly and allowed to equilibrate for 1 hour before beginning experiments with acetylcholine or sodium nitroprusside (SNP). […] Results for the vasodilators were expressed as a percentage of pre-contraction by PE (0.1 μM)."}, "Patient": {"tested_on": "Patient", "experiment": "Treatment of a patient with chronic stable angina (Example 20)", "format": "in vivo, human", "conditions": "oral, 1.0 to 100 mg/kg, two weeks", "experimental": "A person with a prior history of a heart attack (myocardial infarction) 10 years ago presents for evaluation. They are complaining of anginal chest pains that are relived with one sub-lingual nitroglycerin and has had these pains chronically. The patient is administered a composition comprising an effective amount of oral 3,4-Methylenedioxy 6-nitro phenyl lipoate (INV-7465) (1.0 to 100 mg/kg). Alternate therapies include, 3,4-methylenedioxy phenyl acetate (INV 73); 3,4-methylenedioxy-6-nitrophenol (INV 74); 3,4-methylenedioxy-6-nitrophenyl acetate (INV 75); or 3,4-Methylenedioxy phenyl lipoate (INV-7065). Patient notes added benefit in their chest pains with this regimen after taking the medication for two weeks."}, "[4]": {"conditions": "NZW thoracic aorta, end of 12 weeks"}, "[5]": {"conditions": "NZW thoracic aorta, end of 12 weeks, % of pre-contraction by PE"}}}
{"smiles": "CC(=O)Oc1cc2c(cc1[N+](=O)[O-])OCO2", "note": "[INV-75, 3,4-methylenedioxy-6-nitrophenyl acetate]", "values": [{"measurement": "cells displaying toxicity", "setting": "[1]; 10 nM", "result": 2, "unit": "%"}, {"measurement": "cells displaying toxicity", "setting": "[1]; 100 nM", "result": 4, "unit": "%"}, {"measurement": "cells displaying toxicity", "setting": "[1]; 1 μM", "result": 8, "unit": "%"}, {"measurement": "cells displaying toxicity", "setting": "[1]; 10 μM", "result": 7, "unit": "%"}, {"measurement": "cells displaying toxicity", "setting": "[1]; 1 mM", "result": 74, "unit": "%"}, {"measurement": "basal and stimulated superoxide production in aortic tissue lysates", "setting": "[2]", "result": "lower"}]}
{"smiles": "O=C(CCCCC1CCSS1)Oc1ccc2c(c1)OCO2", "note": "(stereo not shown) [INV-7065, 3,4-Methylenedioxy phenyl lipoate]", "values": [{"measurement": "cell toxicity results compared with those of INV-75", "setting": "[1]; dose range of 10 nM to 100 μM", "result": "identical"}, {"measurement": "Ach LogEC50", "setting": "[3]; [4]", "result": "−6.67 ± 0.16", "unit": "M"}, {"measurement": "PE LogEC50", "setting": "[3]; [4]", "result": "−6.28 ± 0.08", "unit": "M"}, {"measurement": "SNP-1 LogEC50", "setting": "[3]; [4]", "result": "−7.09 ± 0.16", "unit": "M"}, {"measurement": "PE Maximum Effect", "setting": "[3]; NZW thoracic aorta, end of 12 weeks, % of peak response to KCl", "result": "109.1 ± 4.78", "unit": "%"}, {"measurement": "Ach Maximum Effect", "setting": "[3]; [5]", "result": "−29.84 ± 2.09", "unit": "%"}, {"measurement": "Insulin Maximum Effect", "setting": "[3]; [5]", "result": "−132.5 ± 14.59", "unit": "%"}, {"measurement": "SNP-1 Maximum Effect", "setting": "[3]; [5]", "result": "−83.06 ± 4.95", "unit": "%"}, {"measurement": "effect on Insulin EC50 doses", "setting": "[3]; NZW, in words", "result": "no effect"}, {"measurement": "improving response to acetylcholine when compared to control", "setting": "[3]; NZW, in words", "result": "no different than lipoic acid"}, {"measurement": "relaxation to peak doses of Insulin compared to lipoic acid", "setting": "[3]; NZW, in words", "result": "improved"}, {"measurement": "vascular contractility to alpha receptor agonist", "setting": "[3]; NZW, in words", "result": "decreases"}]}
{"smiles": "O=C(CCCCC1CCSS1)Oc1cc2c(cc1[N+](=O)[O-])OCO2", "note": "(stereo not shown) [INV-7465, 3,4-Methylenedioxy 6-nitro phenyl lipoate]", "values": [{"measurement": "chest pains", "setting": "Patient", "result": "added benefit"}]}
